The test system of assay [1] is DNA enveloped, DNA non-enveloped, RNA enveloped and RNA non-enveloped viruses. The experiment in a line: In vivo case studies, overall conclusions across virus families. As to conditions: no base oil.
Assay [2] relates to Rotavirus. The experiment in a line: Case study, piglets with confirmed Rotavirus infections. Format: in vivo, Pig (piglet). As to conditions: for Treated - Improvement / Treated Virus or symptom free: Pig (piglet), 2 days, wt.% per Table 2; for de-activation of the Rota virus confirmed / recovered completely / stopped having diarrhea: piglets. How it is done: All three piglets, which would normally experience 3 to 4 days of severe symptoms including diarrhea stopped having diarrhea on/after one day. The de-activation of the Rota virus infected was confirmed on/after the second day. The piglets recovered completely within 2 days.
Three piglets with confirmed Rotavirus infections were treated immediately with 50 mg of the compound of formula B, six times a day for 2 days. All 3 piglets, which would normally experience 4 to 5 days of severe symptoms including diarrhea stopped having diarrhea on/after the second day.
Both piglets, which would normally experience 3 to 4 days of severe symptoms including diarrhea stopped having diarrhea after one day.
(§1) All 3 piglets, which would normally experience 3 to 4 days of severe symptoms including diarrhea stopped having diarrhea after one day.
(§2) All 3 piglets, which would normally experience 3 to 4 days of severe symptoms including diarrhea stopped having diarrhea on/after one day.
as §2, §1

The subject of assay [3] is Parvovirus. The experiment in a line: Case study, Parvo infected puppy. As to conditions: for Treated - Improvement / Treated Virus or symptom free: Dog (puppy), 300 mg, 3 times/day, 4 days, wt.% per Table 2; for confirmed Parvo free / recovered completely / showed signs of recovery: puppy, 300 mg three times a day for 4 days.
Assay [4] concerns Porcine reproductive and respiratory syndrome virus. As to the kind of experiment: Case study, PRRS confirmed piglets. The class given is in vivo, Pig (piglet). Conditions: for Treated - Improvement / Treated Virus or symptom free: Pig (piglet), wt.% per Table 2; for confirmed PRRS free / recovered completely / showed signs of recovery: piglets.
Assay [5] concerns Canine Herpes virus. The experiment in a line: Case study, Canine Herpes infected puppy. Format: in vivo, Dog (puppy). As to conditions: for Treated - Improvement / Treated Virus or symptom free: Dog (puppy), 300 mg, 3 times/day, 4 days, wt.% per Table 2.
For assay [6], the system named is human papilloma virus 2 and 7. As to the kind of experiment: Case study, skin warts of a patient.
Method: Skin warts of patient were treated with 10 mg of the compound of formula B, three times a day for 3 days.
Skin warts of a patient were treated with 10 mg of the compound of formula B+C, three times a day for 3 days.
Skin warts of a patient were treated with 10 mg of the compound of formula A+B+C, three times a day for 3 days.
The test system of assay [7] is herpes simplex virus type 1. The experiment in a line: Case study, Herpes Labialis patient, topical treatment. The class given is in vivo, Human.
Setting [8] is: 500 mg three times a day for 2 days.
[9] abbreviates: 500 mg three times a day for 4 days.
Setting [10] is: puppy, 300 mg three times a day for 4 days.
Setting [11] is: 50 mg six times a day for 2 days.
[12] abbreviates: Human (skin), 10 mg, 3 times/day, 3 days, wt.% per Table 2.
The mark [13] stands for this setting: 50 mg six times a day for 3 days.
Setting [14] is: Human (skin), 10 mg, 3 times/day, 1 day, wt.% per Table 2.
Where [15] appears, read: patient, topical, 10 mg three times a day for 1 day, from onset of lesions.

Turning to `C=C=C(C)c1cc(O)c(O)c(C(=O)C[C@](C)(O)C=C)c1` [Formula A], the “results with 100 wt. % of compound compared with Tables 1 and 2” value (shortened to “results with 100 wt. % of compound”) in assay [1] is given as “same results”. For the same molecule, in assay [2] (500 mg, 3 times/day), the “Treated - Improvement” value was 1 days and the “Treated Virus or symptom free” value is listed as “Day 2”. Besides, in assay [2] (setting [8]), the “de-activation of the Rota virus confirmed” value (from here on “de-activation”) is on record as “second”, the recovered completely is recorded as at most 2 days and the stopped having diarrhea result is recorded as “one”. In assay [3], the “Treated - Improvement” value stood at 1 days, the “Treated Virus or symptom free” value is given as “Day 4”, the “confirmed Parvo free” value is recorded as 4 day of treatment and the recovered completely is given as 6 days. In addition, the “showed signs of recovery” value in assay [3] is listed as “first”. In assay [4] (500 mg, 3 times/day, 4 days), the “Treated - Improvement” value was 1 days and the “Treated Virus or symptom free” value is “Day 2”. Also, in assay [4] (setting [9]), the “confirmed PRRS free” value is listed as 2 day of treatment, the recovered completely was found to be 4 days and the “showed signs of recovery” value was “one”. In assay [5], the “Treated - Improvement” value is 2 days and the “Treated Virus or symptom free” value was “Day 4”. Also, in assay [5] (setting [10]), the “confirmed Herpes free” value is given as 4 day of treatment, the recovered completely stood at 10 days and the “showed signs of recovery” value is reported as “second”.

Regarding `C=C=C(C)c1cc(O)c(O)c(C(=O)C(C)C(C)(C)O)c1` (stereo not shown) [Formula B, 2,3(dihydroxy), 5[3(1,2)butadiene], 2[2-methylbutane]benzenal], in assay [1], the “results with 100 wt. % of compound” value is listed as “same results”. For the same molecule, in assay [2] (50 mg, 6 times/day), the “Treated - Improvement” value was found to be 2 days and the “Treated Virus or symptom free” value is reported as “Day 3”. Further, in assay [2] (setting [11]), the “de-activation” value is given as “second”, the recovered completely is listed as at most 3 days and the stopped having diarrhea result is “second”. Moreover, in assay [6] (setting [12]), the “Treated - Improvement” value was 7 days and the “Treated Virus or symptom free” value was 21 days. The “skin tissue disappeared completely” value in assay [6] (patient, 10 mg three times a day for 3 days) was 3 weeks. The “warts started to soften and becoming white” value in assay [6] (patient, 10 mg three times a day for 3 days, time printed in words) is listed as “a week”. For the same molecule, in assay [4] (50 mg, 6 times/day, 3 days), the “Treated - Improvement” value was found to be 2 days and the “Treated Virus or symptom free” value is recorded as “Day 3”. In assay [4] (setting [13]), the “confirmed PRRS free” value is 3 day of treatment, the recovered completely turned out to be 4 days and the “showed signs of recovery” value is “second”. In assay [7] (setting [14]), the “Treated - Improvement” value worked out at 3 days and the “Treated Virus or symptom free” value is reported as “Day 4”. Further, in assay [7] (setting [15]), the “course of the infection” value was “did not get worse”, the “lesions started to disappear” value is “second” and the “no more signs of infection” value came out at 4 days.

With `C=C=C(C)c1cc(O)c(O)c(C(=O)O[C@](C)(O)C=C)c1` [Formula C, 2,3(dihydroxy), 5[3(1,2)butadiene], 2hydroxy,3butene benzoate], the “results with 100 wt. % of compound” value in assay [1] was “same results”. In assay [2] (500 mg, 3 times/day), the “Treated - Improvement” value worked out at 1 days and the “Treated Virus or symptom free” value is on record as “Day 2”. Further, in assay [2] (setting [8]), the “de-activation” value is “first”, the recovered completely is at most 2 days and the stopped having diarrhea result is given as “one”. In assay [3], the “Treated - Improvement” value is on record as 1 days, the “Treated Virus or symptom free” value was “Day 4”, the “confirmed Parvo free” value is 4 day of treatment and the recovered completely came to 6 days. For the same molecule, in assay [3], the “showed signs of recovery” value is “first”. For the same molecule, in assay [4] (500 mg, 3 times/day, 4 days), the “Treated - Improvement” value came to 1 days and the “Treated Virus or symptom free” value is given as “Day 2”. In addition, in assay [4] (setting [9]), the “confirmed PRRS free” value is recorded as 2 day of treatment, the recovered completely is 4 days and the “showed signs of recovery” value is reported as “one”. Besides, in assay [5], the “Treated - Improvement” value is listed as 2 days and the “Treated Virus or symptom free” value is recorded as “Day 4”. In assay [5] (setting [10]), the “confirmed Herpes free” value was 4 day of treatment and the recovered completely turned out to be 7 days.
